Assay results reported in PubChem BioAssay (NCI).
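Compound exposure: 48 hours, 5 concentrations, 96-well plates. TGI marks complete inhibition of growth.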

Key:
Assay in all cases: growth of human tumour cells (NCI), 48 h
786-0 renal = tested on: 786-0 renal
A498 renal = tested on: A498 renal
A549 NSCLC = tested on: A549 NSCLC
ACHN renal = tested on: ACHN renal
BT-549 breast = tested on: BT-549 breast
CAKI-1 renal = tested on: CAKI-1 renal
CCRF-CEM leukemia = tested on: CCRF-CEM leukemia
COLO 205 colon = tested on: COLO 205 colon
DU-145 prostate = tested on: DU-145 prostate
EKVX NSCLC = tested on: EKVX NSCLC
HCT-116 colon = tested on: HCT-116 colon
HL-60(TB) leukemia = tested on: HL-60(TB) leukemia
HOP-62 NSCLC = tested on: HOP-62 NSCLC
HOP-92 NSCLC = tested on: HOP-92 NSCLC
HS 578T breast = tested on: HS 578T breast
HT29 colon = tested on: HT29 colon
IGROV1 ovarian = tested on: IGROV1 ovarian
K-562 leukemia = tested on: K-562 leukemia
KM12 colon = tested on: KM12 colon
LOX IMVI melanoma = tested on: LOX IMVI melanoma
M14 melanoma = tested on: M14 melanoma
MALME-3M melanoma = tested on: MALME-3M melanoma
MCF7 breast = tested on: MCF7 breast
MDA-MB-231 breast = tested on: MDA-MB-231 breast
MDA-N = tested on: MDA-N
MOLT-4 leukemia = tested on: MOLT-4 leukemia
NCI-H23 lung = tested on: NCI-H23 lung
NCI-H522 lung = tested on: NCI-H522 lung
NCI/ADR-RES ovarian = tested on: NCI/ADR-RES ovarian
OVCAR-3 ovarian = tested on: OVCAR-3 ovarian
OVCAR-4 ovarian = tested on: OVCAR-4 ovarian
OVCAR-5 ovarian = tested on: OVCAR-5 ovarian
OVCAR-8 ovarian = tested on: OVCAR-8 ovarian
PC-3 prostate = tested on: PC-3 prostate
RPMI-8226 leukemia = tested on: RPMI-8226 leukemia
RXF 393 renal = tested on: RXF 393 renal
SF-268 CNS = tested on: SF-268 CNS
SF-295 CNS = tested on: SF-295 CNS
SF-539 CNS = tested on: SF-539 CNS
SK-MEL-2 melanoma = tested on: SK-MEL-2 melanoma
SK-MEL-28 melanoma = tested on: SK-MEL-28 melanoma
SK-MEL-5 melanoma = tested on: SK-MEL-5 melanoma
SK-OV-3 ovarian = tested on: SK-OV-3 ovarian
SN12C renal = tested on: SN12C renal
SNB-19 CNS = tested on: SNB-19 CNS
SNB-75 CNS = tested on: SNB-75 CNS
SR leukemia = tested on: SR leukemia
SW-620 colon = tested on: SW-620 colon
T-47D breast = tested on: T-47D breast
TK-10 renal = tested on: TK-10 renal
U251 CNS = tested on: U251 CNS
UACC-257 melanoma = tested on: UACC-257 melanoma
UACC-62 melanoma = tested on: UACC-62 melanoma
UO-31 renal = tested on: UO-31 renal
HCC-2998 colon = tested on: HCC-2998 colon
HCT-15 colon = tested on: HCT-15 colon
MDA-MB-435 = tested on: MDA-MB-435
NCI-H226 lung = tested on: NCI-H226 lung
NCI-H460 lung = tested on: NCI-H460 lung

O=C1C(Br)=C(C2=CC(=P(c3ccccc3)(c3ccccc3)c3ccccc3)C=C2)C(=O)C(Br)=C1C1=CC(=P(c2ccccc2)(c2ccccc2)c2ccccc2)C=C1 showed a TGI (786-0 renal) of over 100 µM, a TGI (A498 renal) of over 100 µM and a TGI (A549 NSCLC) of over 100 µM. The TGI (ACHN renal) was over 100 µM, the TGI (BT-549 breast) was over 100 µM and the TGI (CAKI-1 renal) was over 100 µM. It also gave a TGI (CCRF-CEM leukemia) of over 100 µM, a TGI (COLO 205 colon) of over 100 µM and a TGI (DU-145 prostate) of over 100 µM. For the same molecule, the TGI (EKVX NSCLC) was 34 µM, the TGI (HCT-116 colon) was over 100 µM and the TGI (HL-60(TB) leukemia) was over 100 µM. It also gave a TGI (HOP-62 NSCLC) of over 100 µM, a TGI (HOP-92 NSCLC) of 55.5 µM and a TGI (HS 578T breast) of over 100 µM. The TGI (HT29 colon) was over 100 µM, the TGI (IGROV1 ovarian) was over 100 µM and the TGI (K-562 leukemia) was over 100 µM. The TGI (KM12 colon) was over 100 µM, the TGI (LOX IMVI melanoma) was over 100 µM and the TGI (M14 melanoma) was 25.1 µM. For the same molecule, the TGI (MALME-3M melanoma) was 34.1 µM, the TGI (MCF7 breast) was over 100 µM and the TGI (MDA-MB-231 breast) was over 100 µM. For the same molecule, the TGI (MDA-N) was over 100 µM, the TGI (MOLT-4 leukemia) was over 100 µM and the TGI (NCI-H23 lung) was over 100 µM. It also gave a TGI (NCI-H522 lung) of 42.9 µM, a TGI (NCI/ADR-RES ovarian) of over 100 µM and a TGI (OVCAR-3 ovarian) of over 100 µM. It also gave a TGI (OVCAR-4 ovarian) of over 100 µM, a TGI (OVCAR-5 ovarian) of 31.7 µM and a TGI (OVCAR-8 ovarian) of over 100 µM. For the same molecule, the TGI (PC-3 prostate) was over 100 µM, the TGI (RPMI-8226 leukemia) was over 100 µM and the TGI (RXF 393 renal) was over 100 µM. It also gave a TGI (SF-268 CNS) of over 100 µM, a TGI (SF-295 CNS) of over 100 µM and a TGI (SF-539 CNS) of over 100 µM. The TGI (SK-MEL-2 melanoma) was over 100 µM, the TGI (SK-MEL-28 melanoma) was over 100 µM and the TGI (SK-MEL-5 melanoma) was over 100 µM. It also gave a TGI (SK-OV-3 ovarian) of over 100 µM, a TGI (SN12C renal) of over 100 µM and a TGI (SNB-19 CNS) of over 100 µM. The TGI (SNB-75 CNS) was over 100 µM, the TGI (SR leukemia) was over 100 µM and the TGI (SW-620 colon) was 35 µM. The TGI (T-47D breast) was over 100 µM, the TGI (TK-10 renal) was over 100 µM and the TGI (U251 CNS) was 30.6 µM. For the same molecule, the TGI (UACC-257 melanoma) was 95.1 µM, the TGI (UACC-62 melanoma) was over 100 µM and the TGI (UO-31 renal) was over 100 µM.

CN(C)c1ccc(/C=C(\NC(=O)c2ccccc2)C(=O)Nc2ccccc2C(=O)NCc2ccccc2)cc1 showed a TGI (786-0 renal) of over 100 µM, a TGI (A498 renal) of over 100 µM and a TGI (A549 NSCLC) of over 100 µM. The TGI (ACHN renal) was over 100 µM, the TGI (BT-549 breast) was over 100 µM and the TGI (CAKI-1 renal) was over 100 µM. The TGI (CCRF-CEM leukemia) was over 100 µM, the TGI (COLO 205 colon) was over 100 µM and the TGI (DU-145 prostate) was over 100 µM. For the same molecule, the TGI (EKVX NSCLC) was over 100 µM, the TGI (HCC-2998 colon) was over 100 µM and the TGI (HCT-116 colon) was over 100 µM. It also gave a TGI (HCT-15 colon) of over 100 µM, a TGI (HL-60(TB) leukemia) of over 100 µM and a TGI (HOP-62 NSCLC) of over 100 µM. It also gave a TGI (HOP-92 NSCLC) of over 100 µM, a TGI (HS 578T breast) of over 100 µM and a TGI (HT29 colon) of over 100 µM. It also gave a TGI (IGROV1 ovarian) of over 100 µM, a TGI (K-562 leukemia) of over 100 µM and a TGI (KM12 colon) of over 100 µM. The TGI (LOX IMVI melanoma) was over 100 µM, the TGI (M14 melanoma) was over 100 µM and the TGI (MALME-3M melanoma) was over 100 µM. It also gave a TGI (MCF7 breast) of over 100 µM, a TGI (MDA-MB-231 breast) of over 100 µM and a TGI (MDA-MB-435) of over 100 µM. It also gave a TGI (MDA-N) of over 100 µM, a TGI (MOLT-4 leukemia) of over 100 µM and a TGI (NCI-H226 lung) of over 100 µM. It also gave a TGI (NCI-H23 lung) of over 100 µM, a TGI (NCI-H460 lung) of over 100 µM and a TGI (NCI-H522 lung) of 93.3 µM. It also gave a TGI (NCI/ADR-RES ovarian) of over 100 µM, a TGI (OVCAR-3 ovarian) of over 100 µM and a TGI (OVCAR-4 ovarian) of over 100 µM. For the same molecule, the TGI (OVCAR-5 ovarian) was over 100 µM, the TGI (OVCAR-8 ovarian) was over 100 µM and the TGI (PC-3 prostate) was over 100 µM. The TGI (RPMI-8226 leukemia) was over 100 µM, the TGI (RXF 393 renal) was over 100 µM and the TGI (SF-268 CNS) was over 100 µM. It also gave a TGI (SF-295 CNS) of over 100 µM, a TGI (SF-539 CNS) of over 100 µM and a TGI (SK-MEL-2 melanoma) of over 100 µM. For the same molecule, the TGI (SK-MEL-28 melanoma) was over 100 µM, the TGI (SK-MEL-5 melanoma) was over 100 µM and the TGI (SK-OV-3 ovarian) was over 100 µM. It also gave a TGI (SN12C renal) of over 100 µM, a TGI (SNB-19 CNS) of over 100 µM and a TGI (SNB-75 CNS) of over 100 µM. For the same molecule, the TGI (SW-620 colon) was over 100 µM, the TGI (T-47D breast) was over 100 µM and the TGI (TK-10 renal) was over 100 µM. The TGI (U251 CNS) was over 100 µM, the TGI (UACC-257 melanoma) was over 100 µM and the TGI (UACC-62 melanoma) was over 100 µM. For the same molecule, the TGI (UO-31 renal) was over 100 µM.

COc1ccc(-c2nc(N3CCCC3)no2)cc1 gave a TGI (786-0 renal) of over 100 µM, a TGI (A498 renal) of over 100 µM and a TGI (A549 NSCLC) of over 100 µM. For the same molecule, the TGI (ACHN renal) was over 75 µM, the TGI (BT-549 breast) was over 100 µM and the TGI (CAKI-1 renal) was over 100 µM. It also gave a TGI (CCRF-CEM leukemia) of over 71.5 µM, a TGI (COLO 205 colon) of over 100 µM and a TGI (DU-145 prostate) of over 100 µM. For the same molecule, the TGI (EKVX NSCLC) was over 100 µM, the TGI (HCC-2998 colon) was over 100 µM and the TGI (HCT-116 colon) was over 100 µM. For the same molecule, the TGI (HCT-15 colon) was over 100 µM, the TGI (HL-60(TB) leukemia) was over 100 µM and the TGI (HOP-62 NSCLC) was over 100 µM. For the same molecule, the TGI (HOP-92 NSCLC) was over 94 µM, the TGI (HS 578T breast) was over 100 µM and the TGI (HT29 colon) was over 100 µM. The TGI (IGROV1 ovarian) was over 100 µM, the TGI (K-562 leukemia) was over 100 µM and the TGI (KM12 colon) was over 100 µM. For the same molecule, the TGI (LOX IMVI melanoma) was over 100 µM, the TGI (M14 melanoma) was over 100 µM and the TGI (MALME-3M melanoma) was over 100 µM. For the same molecule, the TGI (MCF7 breast) was over 100 µM, the TGI (MDA-MB-231 breast) was over 100 µM and the TGI (MDA-MB-435) was over 100 µM. For the same molecule, the TGI (MDA-N) was over 100 µM, the TGI (MOLT-4 leukemia) was over 100 µM and the TGI (NCI-H226 lung) was over 100 µM. It also gave a TGI (NCI-H23 lung) of over 100 µM, a TGI (NCI-H460 lung) of over 100 µM and a TGI (NCI-H522 lung) of over 94.6 µM. It also gave a TGI (NCI/ADR-RES ovarian) of over 100 µM, a TGI (OVCAR-3 ovarian) of over 100 µM and a TGI (OVCAR-4 ovarian) of over 100 µM. It also gave a TGI (OVCAR-5 ovarian) of over 100 µM, a TGI (OVCAR-8 ovarian) of over 100 µM and a TGI (PC-3 prostate) of over 100 µM. For the same molecule, the TGI (RPMI-8226 leukemia) was over 100 µM, the TGI (RXF 393 renal) was over 72.4 µM and the TGI (SF-268 CNS) was over 100 µM. It also gave a TGI (SF-295 CNS) of over 100 µM, a TGI (SF-539 CNS) of over 100 µM and a TGI (SK-MEL-2 melanoma) of over 100 µM. It also gave a TGI (SK-MEL-28 melanoma) of over 100 µM, a TGI (SK-MEL-5 melanoma) of over 100 µM and a TGI (SK-OV-3 ovarian) of over 100 µM. The TGI (SN12C renal) was over 100 µM, the TGI (SNB-19 CNS) was over 100 µM and the TGI (SNB-75 CNS) was over 94.8 µM. For the same molecule, the TGI (SW-620 colon) was over 100 µM, the TGI (T-47D breast) was over 100 µM and the TGI (TK-10 renal) was over 100 µM. For the same molecule, the TGI (U251 CNS) was over 100 µM, the TGI (UACC-257 melanoma) was over 100 µM and the TGI (UACC-62 melanoma) was over 100 µM. The TGI (UO-31 renal) was over 100 µM.
